Laboratory results: US20180037923A1, “SELECTIVE DETECTION OF LACTIC ACID AND/OR ACETIC ACID BACTERIA OR OF FUNGI” (priority 2015, published 2018)
Several values for one entry are separate records, joined by “and”; a condition that tells them apart may be missing. Equal entries are not always repeated.

Experiments:
[1] = tested on: Brettanomyces bruxellensis; test: Atp bioluminescence, simplified protocol, with plate count; assay type: cell-based; settings: Treated 8 h antifungal contact time
Experimental: Use of […] transparent Greiner Bio One sterile flat bottom disposable cuvettes with Biothema AB bioluminescence reagents • 1. […] Addition of 150 μL of “ATP Reagent HS”, Homogenization. • 4.

[2] = tested on: yeasts; test: Microscopic examination and methylene blue staining of yeasts after antifungal; assay type: cell-based
Text: The toxicity results on yeasts and on bacteria are presented in the table below displaying the duration of exposure of the fungal flora to molecule A1 and the associated fluorescence measurement: yeasts lysis after exposure to the antifungal was confirmed by microscopic examination and methylene blue staining.

SMILES: C[C@@H]1[C@H](O)[C@@H](C)/C=C/C=C/C=C/C=C/C=C/C=C/C=C/[C@H](O[C@@H]2O[C@H](C)[C@@H](O)[C@H](N)[C@@H]2O)C[C@@H]2O[C@](O)(C[C@@H](O)C[C@@H](O)[C@H](O)CC[C@@H](O)C[C@@H](O)CC(=O)O[C@H]1C)C[C@H](O)[C@H]2C(=O)O [Molecule A1, Amphotericin B]
- total bioluminescence with lysis agent ([1]; start 2.7.10^2 CFU/100 μL, untreated with lysis agent 26990 and 31661, background 862 and 718 RLU): 933 RLU and 553 RLU
- total bioluminescence with lysis agent ([1]; start 2.7.10^3 CFU/100 μL, untreated with lysis agent 242958 and 265513, background 5346 and 5390 RLU): 4441 RLU and 4433 RLU
- Concentration after treatment ([1]; untreated 2.7.10^2 CFU/100 μL): 0 CFU/100 μL
- Concentration after treatment ([1]; untreated 2.7.10^3 CFU/100 μL): 0 CFU/100 μL
- yeasts lysis after exposure to the antifungal [2]: confirmed
